This note sets out measurements from ChEMBL document CHEMBL1139228, “Saliniketals A and B, bicyclic polyketides from the marine actinomycete Salinispora arenicola” (J Nat Prod, 2007).

Calls of active or inactive are those of the source. The rule behind the calls is not given here.

In assay [1] the target is T1, Ornithine decarboxylase (Homo sapiens) (UniProt P11926).
T1 sequence (whole entry): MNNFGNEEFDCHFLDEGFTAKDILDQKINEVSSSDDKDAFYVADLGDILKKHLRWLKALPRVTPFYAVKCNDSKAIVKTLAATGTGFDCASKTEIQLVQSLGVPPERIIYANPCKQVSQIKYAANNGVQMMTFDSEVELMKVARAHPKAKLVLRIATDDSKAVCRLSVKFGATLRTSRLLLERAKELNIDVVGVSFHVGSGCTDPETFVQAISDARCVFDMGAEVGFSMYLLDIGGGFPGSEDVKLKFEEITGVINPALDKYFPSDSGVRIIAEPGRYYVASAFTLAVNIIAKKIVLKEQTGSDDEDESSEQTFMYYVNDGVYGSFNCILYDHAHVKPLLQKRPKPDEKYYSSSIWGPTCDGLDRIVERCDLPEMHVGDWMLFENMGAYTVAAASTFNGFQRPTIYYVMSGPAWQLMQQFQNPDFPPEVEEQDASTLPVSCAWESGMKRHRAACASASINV
Briefly: Inhibition of ornithine decarboxylase induction expressed in T24 cells. It counts as cell-based. The following applies: T-24.

For assay [2], the target named is T1, Ornithine decarboxylase (Homo sapiens). Briefly: Inhibition of ornithine decarboxylase upto 1 mM.
Assay [3] in a line: Inhibition of DNA dependent RNA polymerase in prokaryotes.

As to `C[C@H]([C@H](O)[C@H](C)[C@@H](O)[C@@H](C)/C=C/C=C(/CO)C(N)=O)[C@@H]1O[C@@]2(C)CC[C@@H](O2)[C@H]1C`, the result in assay [1] and in assay [2] was inactive.
With `CO[C@H]1/C=C/O[C@@]2(C)Oc3c(C)c(O)c4c(O)c(cc(O)c4c3C2=O)NC(=O)/C(C)=C\C=C\[C@H](C)[C@H](O)[C@@H](C)[C@@H](O)[C@@H](C)[C@H](OC(C)=O)[C@@H]1C`, in assay [3], the result was Active.
On to `C/C(=C/C=C/[C@H](C)[C@H](O)[C@@H](C)[C@@H](O)[C@@H](C)[C@@H]1O[C@@]2(C)CC[C@@H](O2)[C@H]1C)C(N)=O`, for which the result in assay [1] and in assay [2] was inactive.
